In ChEMBL document CHEMBL1201862, “PubChem BioAssay data set” (2004):
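96-well plates; 48 h exposure; 5 concentrations. Endpoints by linear interpolation between flanking doses. Not reached: highest tested concentration assigned. At the GI50, growth is halved.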 Calls of active or inactive are those of the source. Cut-off read from the data, not from the text of the source: active = GI50 up to about 1.1 µM and inactive = higher.

Key:
Test in all cases: NCI anticancer screen, dose series, 48 h
KM12 = system: KM12
A549 = system: A549
EKVX = system: EKVX
HCC 2998 = system: HCC 2998
HOP-92 = system: HOP-92
SN12C = system: SN12C
K562 = system: K562
SK-MEL-28 = system: SK-MEL-28
NCI-H460 = system: NCI-H460
UACC-62 = system: UACC-62
COLO 205 = system: COLO 205
UACC-257 = system: UACC-257
TK-10 = system: TK-10
SR = system: SR
ACHN = system: ACHN
SNB-19 = system: SNB-19
SF-539 = system: SF-539
DU-145 = system: DU-145
SK-MEL-5 = system: SK-MEL-5

Measured: GI50

Nc1nc(-c2ccccc2)cc(-c2ccccc2O)n1
inactive: KM12 23.9 µM | A549 34.6 µM | EKVX 23.7 µM | HCC 2998 40.7 µM | HOP-92 > 100 µM | SN12C 37.8 µM | K562 39.1 µM | SK-MEL-28 57.1 µM | NCI-H460 36.2 µM | UACC-62 59.2 µM | COLO 205 43.3 µM | UACC-257 73.8 µM | TK-10 46.7 µM | SR 30.3 µM | ACHN 27.2 µM | SNB-19 68.9 µM | SF-539 37.4 µM

CC1=CC(=O)/C(=C/N2C(=O)CNC2=S)C(=O)O1
inactive: KM12 > 100 µM | DU-145 > 100 µM | A549 > 100 µM | EKVX > 100 µM | HCC 2998 > 100 µM | HOP-92 > 100 µM | SN12C > 100 µM | SK-MEL-5 > 100 µM | SK-MEL-28 > 100 µM | NCI-H460 > 100 µM | COLO 205 > 100 µM | UACC-257 > 100 µM | TK-10 > 100 µM | ACHN > 100 µM | SNB-19 > 100 µM | SF-539 > 100 µM

Cc1cccc(C)c1NC(=O)C1C(=O)N(c2c(C)cccc2C)C(=O)/C1=N\N (stereo not drawn)
inactive: A549 > 100 µM | EKVX > 100 µM | HCC 2998 > 100 µM | HOP-92 > 100 µM | SN12C > 100 µM | K562 > 100 µM | SK-MEL-5 > 100 µM | SK-MEL-28 > 100 µM | UACC-62 > 100 µM | COLO 205 > 100 µM | UACC-257 > 100 µM | TK-10 > 100 µM | SR > 100 µM | ACHN > 100 µM | SNB-19 > 100 µM | SF-539 > 100 µM

Nc1ccc2ncc(NCc3ccc(F)cc3)nc2c1
inactive: KM12 > 100 µM | A549 > 100 µM | EKVX 62.7 µM | HCC 2998 > 100 µM | HOP-92 53.1 µM | SN12C 87.5 µM | K562 87.9 µM | SK-MEL-5 48.1 µM | SK-MEL-28 > 100 µM | NCI-H460 74.6 µM | UACC-62 54.2 µM | COLO 205 > 100 µM | UACC-257 > 100 µM | TK-10 97.3 µM | SR 70 µM | ACHN 64.9 µM | SNB-19 > 100 µM | SF-539 39.6 µM

CC(=O)OCC1OC(OC2C(COC(C)=O)OC(Sc3ccccc3C)C(OC(C)=O)C2OC(C)=O)C(OC(C)=O)C(OC(C)=O)C1OC(C)=O (stereo not drawn)
inactive: KM12 > 100 µM | A549 > 100 µM | EKVX > 100 µM | HCC 2998 > 100 µM | HOP-92 55 µM | SN12C > 100 µM | K562 > 100 µM | SK-MEL-5 > 100 µM | SK-MEL-28 > 100 µM | NCI-H460 > 100 µM | UACC-62 > 100 µM | COLO 205 > 100 µM | UACC-257 > 100 µM | TK-10 > 100 µM | SR > 100 µM | ACHN > 100 µM | SNB-19 > 100 µM | SF-539 > 100 µM

COC(=O)C1(C(=O)OC)CC2=C(S(=O)(=O)c3ccccc3)C[C@H](C#N)[C@H]2C1
inactive: KM12 > 100 µM | DU-145 > 100 µM | A549 > 100 µM | EKVX > 100 µM | HOP-92 69.8 µM | SN12C > 100 µM | SK-MEL-5 > 100 µM | SK-MEL-28 > 100 µM | UACC-62 > 100 µM | COLO 205 68.5 µM | UACC-257 > 100 µM | TK-10 > 100 µM | ACHN > 100 µM | SNB-19 64.6 µM | SF-539 > 100 µM

CN1C(=O)C(C)(C)C2(SC(C)(C)C2(C)C)N(C)C1=S (stereo not drawn)
inactive: KM12 > 100 µM | A549 > 100 µM | EKVX 32 µM | HCC 2998 > 100 µM | HOP-92 27.8 µM | SN12C > 100 µM | K562 53.8 µM | SK-MEL-5 > 10 µM | SK-MEL-28 > 100 µM | NCI-H460 > 100 µM | UACC-62 2.12 µM | COLO 205 > 100 µM | UACC-257 > 100 µM | SR 55.3 µM | ACHN > 100 µM | SNB-19 > 100 µM | SF-539 > 100 µM

[N-]=[N+]=C1C(=O)C2CC3CC1CC2C3 (stereo not drawn)
inactive: KM12 > 100 µM | A549 > 100 µM | EKVX > 100 µM | HCC 2998 > 100 µM | HOP-92 > 100 µM | SN12C > 100 µM | K562 > 100 µM | SK-MEL-5 > 100 µM | SK-MEL-28 > 100 µM | NCI-H460 > 100 µM | UACC-62 > 100 µM | COLO 205 > 100 µM | UACC-257 > 100 µM | TK-10 > 100 µM | SR > 100 µM | ACHN > 100 µM | SNB-19 > 100 µM | SF-539 > 100 µM

CC1=C(C(=O)Nc2ccccc2C)C(c2ccccc2)C(C(=O)Nc2ccccc2C)=C(C)N1
inactive: KM12 26.6 µM | A549 59 µM | EKVX 27.7 µM | HCC 2998 32.4 µM | HOP-92 6.61 µM | SN12C 56.6 µM | K562 22.6 µM | SK-MEL-5 29.2 µM | SK-MEL-28 > 100 µM | NCI-H460 33.6 µM | UACC-62 27.1 µM | COLO 205 24.1 µM | UACC-257 37.8 µM | TK-10 98.6 µM | SR 11.7 µM | ACHN 26.3 µM | SNB-19 45.8 µM | SF-539 60.4 µM

COC(=O)[C@]12CCC(C)[C@H](C)[C@H]1C1=CCC3[C@@]4(C)CC[C@H](OC(C)=O)C(C)(C)C4CC[C@@]3(C)C1(C)C(O)C2 (stereo partly drawn)
inactive: KM12 > 100 µM | A549 > 100 µM | EKVX > 100 µM | HCC 2998 > 100 µM | HOP-92 > 100 µM | SN12C > 100 µM | K562 89.1 µM | SK-MEL-5 > 100 µM | SK-MEL-28 > 100 µM | NCI-H460 > 100 µM | UACC-62 > 100 µM | COLO 205 > 100 µM | UACC-257 > 100 µM | TK-10 > 100 µM | SR > 100 µM | ACHN > 100 µM | SNB-19 > 100 µM | SF-539 > 100 µM

COc1ccc(/C=C(/C(=O)O)c2cc(OC)c(OC)c(OC)c2)cc1
inactive: KM12 63 µM | A549 56.1 µM | EKVX > 100 µM | HCC 2998 > 100 µM | HOP-92 > 100 µM | SN12C 46.9 µM | K562 38.5 µM | SK-MEL-5 41.1 µM | SK-MEL-28 61.9 µM | NCI-H460 48.1 µM | UACC-62 43.6 µM | COLO 205 33.3 µM | UACC-257 31.5 µM | SR 43.3 µM | ACHN > 100 µM | SNB-19 59.4 µM | SF-539 19.3 µM
